In brackets after ≈: the same amount, converted by molar mass. Where two headings read alike, the source gives them in different places.
How the values were obtained:
Candida tropicalis = assay: MIC, RPMI medium, Candida tropicalis; type: cell-based; conditions: read-out: MIC C. tropicalis
Experimental: (§1) Measurement of Minimum Inhibitory Concentrations (MICs)
(§2) Between 1 and 5 mgs of compound were accurately weighed out into a sterile Eppendorf tube. The compound was dissolved in DMSO to give a solution containing 5 mg/ml. Tubes were stored at −20° C. until required.
(§3) On the day of testing thawed solutions were vortex mixed to ensure homogeneity. 30 μl of solution was removed and added to 570 μl of sterile water in a separate sterile Eppendorf. The thoroughly mixed solution was used to prepare a series of doubling dilutions in water, in a deep well plate. Eleven replicate plates were prepared using a Minitrak by aspirating 20 μl from each well into eleven clear polystyrene 96 well plates.
(§4) Spores of Aspergillus spp (Aspergillus fumigatus, Aspergillus terreus, Aspergillus niger and Aspergillus flavus) were harvested from cultures grown on Sabarauds agar for 5 days, and resuspended in PBS/Tween 80 to approx 1×10^7 cfu/ml Other filamentous fungi (Fusarium solani, Scedosporium spp., Trichophyton spp., Absidia corymbifera), were grown on Sabarauds agar for 2-10 days and spores/hyphae resuspended in PBS/Tween to give approx 1×10^7 cfU/ml. Candida species (Candida albicans, Candida glabrata, Candida krusei, Candida parapsilosis and Candida tropicalis) were grown on Sabarauds agar, cells were harvested from the agar using a sterile loop and resuspended in PBS/Tween 80 to approx 1×10^6 cfu/ml. Each organism suspension was diluted in RPMI medium, containing 2% glucose and 0.135M MOPS buffer (pH7.0) to 2×10^4 cfu/ml for Aspergillus spp and other filamentous fungi and 2×10^3 cfu/ml for yeast. 80 μl of an organism suspension was added to each well of the plate containing drug dilutions.
(§5) This produced MIC plates with a drug range 50-0.05 mg/L and organism inocula of 1-2×10^4 cfu/ml for Aspergillus spp and other filamentous fungi and 1-2×10^3 cfu/ml for yeasts. All plates were incubated for 24-48 hrs at 35° C. Growth was assessed by monitoring the optical density at 485 nm for each well. The MIC of a compound is the lowest drug concentration that inhibits growth of an organism by >80% compared with a drug free control. MICs are recorded as mg/L. Other growth media can be used for susceptibility testing, and the activity of the described compounds can also be assessed in a medium comprising, 1% glucose, 1% ammonium chloride and 0.5% yeast extract (YAG medium). To perform MIC tests in this medium, dilutions of compounds are prepared in microtitre plates as described above. Fungal strains to be tested are grown and harvested in an identical manner to that described above, each organism suspension is then diluted in YAG medium to 2×10^4 cfu/ml for Aspergillus spp and other filamentous fungi and 2×10^3 cfu/ml for yeast. 80 μl of an organism suspension was added to each well of the plate containing drug dilutions. This produced MIC plates with a drug range 50-0.05 mg/L and organism inocula of 1-2×10^4 cfu/ml for Aspergillus spp and other filamentous fungi and 1-2×10^3 cfu/ml for yeasts. All plates were incubated for 24 hrs at 35° C. Growth was assessed by monitoring the optical density at 485 nm for each well. The MIC of a compound is the lowest drug concentration that inhibits growth of an organism by >70% compared with a drug free control. MICs are recorded as mg/L. In cases where the MIC of an organism is […]0.05 mg/L the MIC is repeated using a concentration range of 0.5-0.0005 mg/L. MIC tests in YAG medium have more clear-cut endpoints and have slightly lower MICS than those performed in RPMI medium.
(§6) The following organisms were tested: Aspergillus fumigatus AF293 and Aspergillus fumigatus AF210, Aspergillus niger, Aspergillus terreus, Aspergillus favus, Candida albicans, Candida krusei, Candida tropicalis, Candida glabrata, Candida parapsilosis, Trichophyton rubrum, Trichophyton mentagrophytes, Scedosporium prolificans, Scedosporium apiospermum, Absidia corymbifera, Fusarium solani.

Candida glabrata = assay: MIC, RPMI medium, Candida glabrata; type: cell-based; conditions: Nakaseomyces glabratus, read-out: MIC C. glabrata
Experimental: as §1, §2, §3, §4, §5, §6

Candida albicans = assay: MIC, RPMI medium, Candida albicans; type: cell-based; conditions: read-out: MIC C. albicans
Experimental: as §1, §2, §3, §4, §5, §6

Candida parapsilosis = assay: MIC, RPMI medium, Candida parapsilosis; type: cell-based; conditions: Lodderomyces parapsilosis, read-out: MIC C. parapsilosis
Experimental: as §1, §2, §3, §4, §5, §6

Candida krusei = assay: MIC, RPMI medium, Candida krusei; type: cell-based; conditions: Pichia kudriavzevii, read-out: MIC C. krusei
Experimental: as §1, §2, §3, §4, §5, §6

Aspergillus flavus = assay: MIC, YAG medium, Aspergillus flavus; type: cell-based; conditions: Aspergillus flavus, YAG medium
Summary of the method: (§7)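 Yeast: RPMI + 2% glucose + 0.135M MOPS pH7.0, 1-2×10^3 cfu/ml, 35° C 24-48 h, OD485, MIC at >80% inhib. Aspergillus: YAG (1% glucose, 1% NH4Cl, 0.5% yeast extract), spores 1-2×10^4 cfu/ml, 35° C 24 h, MIC at >70% inhib. Range 50-0.05 mg/L.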

[1] = tested on: Aspergillus fumigatus AF210; assay: MIC, YAG medium, Aspergillus fumigatus AF210; type: cell-based; conditions: Aspergillus fumigatus, AF210; YAG medium; read-out: MIC A Fum. 210
Summary of the method: as §7

Aspergillus terreus = assay: MIC, YAG medium, Aspergillus terreus; type: cell-based; conditions: Aspergillus terreus, YAG medium
Summary of the method: as §7

[2] = tested on: Aspergillus fumigatus AF293; assay: MIC, YAG medium, Aspergillus fumigatus AF293; type: cell-based; conditions: Aspergillus fumigatus, AF293; YAG medium; read-out: MIC A Fum. 293
Summary of the method: as §7

Aspergillus niger = assay: MIC, YAG medium, Aspergillus niger; type: cell-based; conditions: Aspergillus niger, YAG medium
Summary of the method: as §7

A Terreus 49 = assay: MIC, YAG medium, A Terreus 49; type: cell-based, Aspergillus terreus; conditions: Aspergillus terreus; YAG medium; read-out: MIC A Terreus 49
Summary of the method: as §7

MIC (Candida tropicalis) | MIC (Candida glabrata) | MIC (Candida albicans) | MIC (Candida parapsilosis) | MIC (Candida krusei) | MIC (Aspergillus flavus; read-out: MIC A Flavus 01) | MIC [1] | MIC (Aspergillus terreus; read-out: MIC A Terreus 4) | MIC [2] | MIC (Aspergillus niger; read-out: MIC A Niger 1) | MIC (A Terreus 49) | MIC (Aspergillus flavus; read-out: MIC A Flavus) | MIC (Aspergillus terreus; read-out: MIC A Terreus) | MIC (Aspergillus niger; read-out: MIC A Niger) | Compound
– | – | – | – | – | – | 0.25 µg/mL (≈ 0.612 µM) | – | 0.25 µg/mL (≈ 0.612 µM) | – | 0.015 µg/mL (≈ 0.0367 µM) | 0.031 µg/mL (≈ 0.0759 µM) | 0.015 µg/mL (≈ 0.0367 µM) | 0.015 µg/mL (≈ 0.0367 µM) | O=C(Nc1ccc(C(F)(F)F)cc1)C(=O)c1c(-c2ccccc2)cc2ccccn12 [Example 304, 2-Oxo-2-(2-phenyl-indolizin-3-yl)-N-(4-trifluoromethyl-phenyl)-acetamide]
– | – | – | – | – | – | 0.5 µg/mL (≈ 1.22 µM) | – | 0.5 µg/mL (≈ 1.22 µM) | – | 0.015 µg/mL (≈ 0.0367 µM) | 0.062 µg/mL (≈ 0.151 µM) | 0.031 µg/mL (≈ 0.0757 µM) | 0.015 µg/mL (≈ 0.0367 µM) | O=C(Nc1ccc(Cl)cc1Cl)C(=O)c1c(-c2ccccc2)cc2ccccn12 [Example 305, N-(2,4-Dichloro-phenyl)-2-oxo-2-(2-phenyl-indolizin-3-yl)-acetamide]
– | – | – | – | – | – | 0.062 µg/mL (≈ 0.152 µM) | – | 0.12 µg/mL (≈ 0.294 µM) | – | 0.002 µg/mL (≈ 0.0049 µM) | 0.008 µg/mL (≈ 0.0196 µM) | 0.004 µg/mL (≈ 0.00979 µM) | 0.015 µg/mL (≈ 0.0367 µM) | O=C(Nc1cccc(C(F)(F)F)c1)C(=O)c1c(-c2ccccc2)cc2ccccn12 [Example 306, 2-Oxo-2-(2-phenyl-indolizin-3-yl)-N-(3-trifluoromethyl-phenyl)-acetamide]
– | – | – | – | – | – | 0.05 µg/mL (≈ 0.118 µM) | – | 0.008 µg/mL (≈ 0.0189 µM) | – | 0.001 µg/mL (≈ 0.00236 µM) | 0.008 µg/mL (≈ 0.0189 µM) | 0.002 µg/mL (≈ 0.00472 µM) | 0.008 µg/mL (≈ 0.0189 µM) | O=C(Nc1ccc(N2CCCCC2)cc1)C(=O)c1c(-c2ccccc2)cc2ccccn12 [Example 307, 2-Oxo-2-(2-phenyl-indolizin-3-yl)-N-(4-piperidin-1-yl-phenyl)-acetamide]

Continued, compound first:

Compound | MIC (Candida tropicalis) | MIC (Candida glabrata) | MIC (Candida albicans) | MIC (Candida parapsilosis) | MIC (Candida krusei) | MIC (Aspergillus flavus; read-out: MIC A Flavus 01) | MIC [1] | MIC (Aspergillus terreus; read-out: MIC A Terreus 4) | MIC [2] | MIC (Aspergillus niger; read-out: MIC A Niger 1) | MIC (A Terreus 49) | MIC (Aspergillus flavus; read-out: MIC A Flavus) | MIC (Aspergillus terreus; read-out: MIC A Terreus) | MIC (Aspergillus niger; read-out: MIC A Niger)
COCCNC(=O)C(=O)c1c(-c2cccnc2)cc2ccccn12 [Example 185, N-(2-Methoxy-ethyl)-2-oxo-2-(2-pyridin-3-yl-indolizin-3-yl)-acetamide] | 12.5 µg/mL (≈ 38.7 µM) | > 50 µg/mL | 50 µg/mL (≈ 155 µM) | 50 µg/mL (≈ 155 µM) | > 50 µg/mL | – | – | – | – | – | – | – | – | –
O=C(Nc1ccc(C(F)(F)F)cc1)C(=O)c1c(-c2cccnc2)cc2ccccn12 [Example 212, 2-Oxo-2-(2-pyridin-3-yl-indolizin-3-yl)-N-(4-trifluoromethyl-phenyl)-acetamide] | > 50 µg/mL | 25 µg/mL (≈ 61.1 µM) | > 50 µg/mL | > 50 µg/mL | > 50 µg/mL | 0.05 µg/mL (≈ 0.122 µM) | 0.4 µg/mL (≈ 0.977 µM) | 0.1 µg/mL (≈ 0.244 µM) | 0.8 µg/mL (≈ 1.95 µM) | 0.4 µg/mL (≈ 0.977 µM) | – | – | – | –
O=C(Nc1ccc(Nc2ccccn2)cc1)C(=O)c1c(-c2ccccc2)cc2ccccn12 [Example 270, 2-Oxo-2-(2-phenyl-indolizin-3-yl)-N-[4-(pyridin-2-ylamino)-phenyl]-acetamide] | 25 µg/mL (≈ 57.8 µM) | 50 µg/mL (≈ 116 µM) | 6.25 µg/mL (≈ 14.5 µM) | 50 µg/mL (≈ 116 µM) | 50 µg/mL (≈ 116 µM) | 0.05 µg/mL (≈ 0.116 µM) | 0.015 µg/mL (≈ 0.0347 µM) | 0.05 µg/mL (≈ 0.116 µM) | 0.05 µg/mL (≈ 0.116 µM) | 0.05 µg/mL (≈ 0.116 µM) | 0.12 µg/mL (≈ 0.277 µM) | – | – | –
O=C(Nc1ccc(-c2nnn[nH]2)cc1)C(=O)c1c(-c2ccccc2)cc2ccccn12 [Example 271, 2-Oxo-2-(2-phenyl-indolizin-3-yl)-N-[4-(1H-tetrazol-5-yl)-phenyl]-acetamide] | 25 µg/mL (≈ 61.2 µM) | 50 µg/mL (≈ 122 µM) | 3.1 µg/mL (≈ 7.59 µM) | 50 µg/mL (≈ 122 µM) | 50 µg/mL (≈ 122 µM) | 50 µg/mL (≈ 122 µM) | 50 µg/mL (≈ 122 µM) | 25 µg/mL (≈ 61.2 µM) | 50 µg/mL (≈ 122 µM) | 50 µg/mL (≈ 122 µM) | 25 µg/mL (≈ 61.2 µM) | – | – | –
O=C1CCN(c2ccc(NC(=O)C(=O)c3c(-c4ccccc4)cc4ccccn34)cc2)CC1 [Example 272, 2-Oxo-N-[4-(4-oxo-piperidin-1-yl)-phenyl]-2-(2-phenyl-indolizin-3-yl)-acetamide] | 6.25 µg/mL (≈ 14.3 µM) | 50 µg/mL (≈ 114 µM) | 1.6 µg/mL (≈ 3.66 µM) | 25 µg/mL (≈ 57.1 µM) | 50 µg/mL (≈ 114 µM) | 0.062 µg/mL (≈ 0.142 µM) | 0.5 µg/mL (≈ 1.14 µM) | 0.12 µg/mL (≈ 0.274 µM) | 0.25 µg/mL (≈ 0.571 µM) | 0.5 µg/mL (≈ 1.14 µM) | 0.12 µg/mL (≈ 0.274 µM) | – | – | –
CN(C)c1ccc(NC(=O)C(=O)c2c(-c3ccccc3)cc3ccccn23)cc1C(=O)O [Example 274, 2-Dimethylamino-5-[2-oxo-2-(2-phenyl-indolizin-3-yl)-acetylamino]-benzoic acid] | 12.5 µg/mL (≈ 29.2 µM) | > 50 µg/mL | 3.1 µg/mL (≈ 7.25 µM) | 50 µg/mL (≈ 117 µM) | > 50 µg/mL | 50 µg/mL (≈ 117 µM) | > 50 µg/mL | > 50 µg/mL | 50 µg/mL (≈ 117 µM) | > 50 µg/mL | 12.5 µg/mL (≈ 29.2 µM) | – | – | –
COC(=O)C1CCCN1c1ccc(NC(=O)C(=O)c2c(-c3ccccc3)cc3ccccn23)cc1 (stereo not shown) [Example 275, 1-{4-[2-Oxo-2-(2-phenyl-indolizin-3-yl)-acetylamino]-phenyl}-pyrrolidine-2-carboxylic acid methyl ester] | > 50 µg/mL | > 50 µg/mL | 25 µg/mL (≈ 53.5 µM) | > 50 µg/mL | > 50 µg/mL | 0.03 µg/mL (≈ 0.0642 µM) | 0.03 µg/mL (≈ 0.0642 µM) | 0.03 µg/mL (≈ 0.0642 µM) | 0.05 µg/mL (≈ 0.107 µM) | 0.4 µg/mL (≈ 0.856 µM) | 0.015 µg/mL (≈ 0.0321 µM) | – | – | –
C[S+]1CCN(c2ccc(NC(=O)C(=O)c3c(-c4ccccc4)cc4ccccn34)cc2)CC1.[I-] [Example 299, 1-Methyl-4-{4-[2-oxo-2-(2-phenyl-indolizin-3-yl)-acetylamino]-phenyl}-thiomorpholin-1-ium iodide] | – | – | – | – | – | 3.1 µg/mL | 6.25 µg/mL | 3.1 µg/mL | 6.25 µg/mL | 12.5 µg/mL | 1.6 µg/mL | – | – | –

Reference: patent publication US8486962B2, “Antifungal agents” (F2G Ltd., priority 2005, dated 2013)
